Experimental data from patent US6524527B2 (Natural Corporation, priority 1998, dated 2003).

Key:
Assay type in all cases: physicochemical
[1] = Oxidation of CLA methyl ester in open test tube, GLC composition; conditions: for relative content, Day 0: CLA methyl ester sample before oxidation; for relative content, Day 115: open test tube, 115 days, room temperature, free access to air
Protocol: This example describes the oxidation of CLA exposed to open air. A small sample of methyl ester was prepared and stored in an open test tube for 115 days at room temperature with free access to air. […] A chromatogram of the same sample was also run on a polar column. The results indicated the presence of a large number of short chain polar components (i.e., breakdown products).

[2] = Oil stability index (OSI) of CLA triacylglyceride with added antioxidants; conditions: antioxidant added to CLA triacylglyceride, 0-0.1 %
Protocol: In some embodiments, oxidation of CLA is prevented by the addition of metal oxidant chelators or peroxide scavengers to the finished product. In some embodiments, the amount of oxidation is measured by the oil stability index (OSI). The OSI (See e.g., AOCS official method Cd 12b-92) is a measurement of an oil's resistance to oxidation. It is defined mathematically as the time of maximum change of the rate of oxidation. This rate can be determined mathematically. Experimentally, the OSI is calculated by measuring the change in conductivity of deionized water is which volatile organic acids (oxidation products) are dissolved. When performing OSI measurements, it is important to avoid contamination by trace amounts of metals, which can accelerate the oxidation process. This is generally accomplished by careful washing of all glassware used with a cleaning solution lacking chromate or surfactants. Water must be deionized and all solvents must be of a highly purified grade. […]
The oxygen stability index (OSI) was measured using a method known in the art (AOCS official method Cd 12b-92 using an OSI apparatus from Omnion Instruments). […] The conductivity of the water is continually monitored over time. The OSI (the point of maximum change of the rate of oxidation) is determined mathematically. […]

[3] = Peroxide value (PV), colorimetric ferric thiocyanate method; conditions: after storage in open glass
Source text: The present invention is not limited to any one mechanism. Indeed, an understanding of the mechanism of the invention is not necessary to produce the composition or perform the methods of the present invention.

| SMILES | relative content, Day 0 [1] | relative content, Day 115 [1] | increase of the OSI value by addition of antioxidant [2] | peroxide values (PV) [3] |
| --- | --- | --- | --- | --- |
| CCCCCCCC/C=C\CCCCCCCC(=O)O [C18:1, c9, oleic acid] | 4.14 | 3.19 |  |  |
| CCCCCC/C=C\CCCCCCCCCC(=O)O [C18:1, c11] | 0.13 | 0.10 |  |  |
| CCCCCCCC/C=C/CCCCCCCC(=O)O [C18:1, t9] | 0 | 0.33 |  |  |
| CCCCC/C=C\C/C=C\CCCCCCCC(=O)O [C18:2, c9, c12, 9,12-linoleic acid] | 0.06 | 0.03 |  |  |
| CCCCCCCCCCCCCCCC(=O)O [C 16:0, palmitic acid] | 1.36 | 1027 |  |  |
| CCCCCC/C=C\C=C/CCCCCCCC(=O)O [CLA, c9, c11] | 0.11 | 0 |  |  |
| CCCCCC/C=C/C=C\CCCCCCCC(=O)O [CLA, c9, t11, c9,t11-octadecadienoic] | 7.68 | 0 |  |  |
| CCCCC/C=C\C=C/CCCCCCCCC(=O)O [CLA, c10, c12, c10,c12 octadecadienoic acid] | 0.09 | 0 |  |  |
| CCCCC/C=C\C=C\CCCCCCCCC(=O)O [CLA, t10, c12, t10,c12-octadecadienoic acid] | 7.63 | 0 |  |  |
| Cc1c(C)c2c(c(C)c1O)CC[C@@](C)(CCC[C@H](C)CCC[C@H](C)CCCC(C)C)O2 [alpha-tocopherol] |  |  | did not significantly increase |  |
| CCCCC/C=C\C/C=C\CCCCCCCC(=O)O [linoleic acid] |  |  |  | 370 |
